Experimental findings from patent publication US11286251B2, “Matrix metalloproteinase inhibitors and imaging agents, and methods using same” (Yale University, priority 2016, dated 2022) are described below.

Data set [1] deals with rhMMP-9 (Homo sapiens, UniProt P14780). As to the kind of experiment: MMP inhibition assay, fluorogenic substrate cleavage (Ki).
Experimental: (§1) MMP inhibition assays were carried out in 50 mM Tris/HCl buffer, pH=6.8, 10 mM CaCl2 at 25° C. […] Titration experiments were carried out to determine active enzyme concentration for each MMP prior to the assay.
(§2) The recombinant human MMPs including rhMMP-2, rhMMP-9, and rhMMP-12 obtained from R&D Systems (Minneapolis, Minn., USA) were activated by 1 mM p-aminophenylmercuric acetate (APMA, Sigma) at 37° C. for certain hours according to the manufacturer's instructions. The activated MMPs were diluted in the assay buffer consisting of 50 mM Tris, 10 mM CaCl2, 150 mM NaCl, 0.05% Brij-35 (w/v), pH 7.5 (TCNB). The assays were carried out in 96-well non-binding surface black microplates (Fisher Scientific).
(§3) The solutions were incubated at room temperature for 20 min. 10 μL of the fluorogenic MMP substrate i.e. Mca-KPLGL-Dpa-AR-NH2 (R&D Systems) at 4 different concentrations (such as 50.0 μM, 40.0 μM, 30.0 μM, and 20.0 μM) in assay buffer were added before starting the fluorescence measurements. […] The inhibition constants (Ki) of the inhibitor with MMPs were calculated from the mean velocity values using GraphPad Prism 6 by the equation:
Data set [2] addresses T1, rhMMP-2 (Homo sapiens, UniProt P08253).
T1 sequence (P08253 110-660): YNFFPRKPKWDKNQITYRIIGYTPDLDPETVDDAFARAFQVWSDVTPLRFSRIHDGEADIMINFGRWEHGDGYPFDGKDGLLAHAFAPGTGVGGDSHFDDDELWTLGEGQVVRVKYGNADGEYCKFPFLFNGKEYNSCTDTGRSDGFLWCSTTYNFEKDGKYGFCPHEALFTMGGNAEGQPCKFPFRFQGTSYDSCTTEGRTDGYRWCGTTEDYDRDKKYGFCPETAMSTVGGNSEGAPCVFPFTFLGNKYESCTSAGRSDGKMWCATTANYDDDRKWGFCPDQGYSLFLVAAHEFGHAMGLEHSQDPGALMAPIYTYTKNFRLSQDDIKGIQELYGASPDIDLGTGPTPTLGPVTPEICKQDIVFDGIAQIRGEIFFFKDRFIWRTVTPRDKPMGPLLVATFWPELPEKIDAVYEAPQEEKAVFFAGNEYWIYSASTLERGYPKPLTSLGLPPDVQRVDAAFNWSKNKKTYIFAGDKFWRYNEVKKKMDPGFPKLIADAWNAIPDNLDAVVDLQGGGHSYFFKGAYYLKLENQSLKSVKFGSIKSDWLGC
The description is as above.
Experimental: as §1, §2, §3

Data set [3] addresses rhMMP-12 (Homo sapiens, UniProt P39900). The description is as above.
Experimental: (§4) MMPs were purchased from R&D Systems (Minneapolis, Minn.). MMP inhibition assays were carried out in 50 mM Tris/HCl buffer, pH=6.8, 10 mM CaCl2 at 25° C. […] Titration experiments were carried out to determine active enzyme concentration for each MMP prior to the assay. For each probe, the % of inhibition was determined from five different concentrations in triplicates, chosen to reach a range of 20-80% inhibition.
as §2
(§5) The solutions were incubated at room temperature for 20 min. 10 μL of the fluorogenic MMP substrate i.e. Mca-KPLGL-Dpa-AR-NH2 (R&D Systems) at 4 different concentrations (such as 50.0 μM, 40.0 μM, 30.0 μM, and 20.0 μM) in assay buffer were added before starting the fluorescence measurements. The kinetics (v) of fluorescence changes were measured at excitation and emission wavelengths of 320 nm and 405 nm for 30 min (1.44 min intervals, sensitivity 100, shaking intensity 4, duration 30 s) by a fluorescent plate reader (BIO-TEK/Synergy HT). The inhibition constants (Ki) of the inhibitor with MMPs were calculated from the mean velocity values using GraphPad Prism 6 by the equation:
The target of data set [4] is rhMMP-13 (Homo sapiens, UniProt P45452). The description is as above. As to conditions: read-out: Ki rhMMP-13; mean ± SE.
Experimental: as §4, §2, §5
Data set [5] deals with T2, rhMMP-7 (Homo sapiens, UniProt P09237).
T2 sequence (P09237 95-267): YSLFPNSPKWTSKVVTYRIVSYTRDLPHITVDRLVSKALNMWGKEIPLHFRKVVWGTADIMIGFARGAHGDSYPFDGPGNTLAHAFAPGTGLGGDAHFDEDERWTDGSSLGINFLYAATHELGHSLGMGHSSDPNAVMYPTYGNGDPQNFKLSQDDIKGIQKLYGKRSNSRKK
Described as above. The settings on record: read-out: Ki rhMMP-7; mean ± SE.
Experimental: as §4, §2, §5

The subject of data set [6] is rhMMPs. As to the kind of experiment: In vitro MMP binding screens (panel). As to conditions: several MMPs.
Experimental: as §4, §2, §5
Data set [7] can be described thus: Aqueous solubility. The class given is physicochemical.
The mark [8] stands for this setting: read-out: Ki rhMMP-9, mean ± SE.
Where [9] appears, read: read-out: Ki rhMMP-2, mean ± SE.
Where [10] appears, read: read-out: Ki rhMMP-12, mean ± SE.

Entries after “also recorded” stand apart in the source; their conditions may differ. Where two headings read alike, the source gives them in different places.

rhMMP-12, sequence (P39900 106-470): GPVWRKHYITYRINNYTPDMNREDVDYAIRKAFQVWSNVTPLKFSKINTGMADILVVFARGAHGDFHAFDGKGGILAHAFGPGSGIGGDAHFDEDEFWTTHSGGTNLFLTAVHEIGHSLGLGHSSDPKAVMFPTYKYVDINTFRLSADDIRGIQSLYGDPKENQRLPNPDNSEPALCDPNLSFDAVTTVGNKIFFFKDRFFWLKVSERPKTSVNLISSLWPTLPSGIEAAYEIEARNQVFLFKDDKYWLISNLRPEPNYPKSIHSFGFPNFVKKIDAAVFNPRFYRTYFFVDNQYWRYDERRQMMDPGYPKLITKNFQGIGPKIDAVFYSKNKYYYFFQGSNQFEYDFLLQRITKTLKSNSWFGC
rhMMP-9, sequence (P14780 107-707 limits assumed): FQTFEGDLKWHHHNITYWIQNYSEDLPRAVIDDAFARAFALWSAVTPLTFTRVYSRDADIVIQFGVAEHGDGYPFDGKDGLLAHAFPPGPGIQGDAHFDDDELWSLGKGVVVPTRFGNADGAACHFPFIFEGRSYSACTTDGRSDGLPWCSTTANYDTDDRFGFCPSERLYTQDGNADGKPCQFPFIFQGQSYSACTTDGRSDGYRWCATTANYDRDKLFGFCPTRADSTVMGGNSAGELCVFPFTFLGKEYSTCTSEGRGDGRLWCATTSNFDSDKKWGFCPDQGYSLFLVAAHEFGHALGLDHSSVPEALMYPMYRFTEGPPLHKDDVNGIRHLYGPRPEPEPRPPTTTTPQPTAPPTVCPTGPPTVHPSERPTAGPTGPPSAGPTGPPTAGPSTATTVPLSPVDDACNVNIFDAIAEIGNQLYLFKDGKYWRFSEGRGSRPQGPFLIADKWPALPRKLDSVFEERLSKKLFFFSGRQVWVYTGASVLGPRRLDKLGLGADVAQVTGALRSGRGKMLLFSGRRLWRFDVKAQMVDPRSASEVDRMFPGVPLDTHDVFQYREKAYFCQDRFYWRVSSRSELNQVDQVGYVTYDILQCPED

With `CC(C)CC1C(=O)NC(C(=O)NCCOCCOCCOCCF)Cc2ccc(cc2)OCCCC1C(=O)NO` [Compound 17, (6S,7R,10S)—N10-(2-(2-(2-(2-fluoroethoxy)ethoxy)ethoxy)ethyl)-N^6-hydroxy-7-isobutyl-8-oxo-2-oxa-9-aza-1(1,4)-benzenacycloundecaphane-6,10-dicarboxamide], the inhibitory constant (Ki) in data set [1] (setting [8]) amounted to 8.8 ± 0.8 nM; in data set [2] (setting [9]), 8.6 ± 1.3 nM; in data set [3] (setting [10]), 2.1 ± 0.3 nM.

Regarding `CNC(=O)[C@H](Cc1c[nH]c2ccccc12)NC(=O)[C@@H](CC(=O)NO)CC(C)C` [GM-6001, reference compound], the results for the Ki in data set [4], in data set [5] and in data set [3] were 0.3 nM, 0.4 nM and 0.57 nM, respectively.

For the compound `CC(C)CC1C(=O)NC(C(=O)NC(CCCNC(=N)N)C(=O)NCCNC(=O)c2ccc(NN)nc2)Cc2ccc(cc2)OCCCC1C(=O)NO` [Compound 1, (6S,7R,10S)—N^10—((S)-5-guanidino-1-((2-(6-hydrazinylnicotinamido)ethyl)amino)-1-oxopentan-2-yl)-N^6-hydroxy-7-isobutyl-8-oxo-2-oxa-9-aza-1(1,4)-benzenacycloundecaphane-6,10-dicarboxamide], the inhibition constant (Ki) in data set [4] stood at 16.9 ± 2.7 nM; in data set [1] (setting [8]) it was 17.4 ± 2.1 nM; in data set [5], 33.2 ± 5 nM; in data set [2] (setting [9]), 10.4 nM; in data set [3] (setting [10]), 2.2 ± 0.5 nM. In addition, the “affinity for rhMMP-9 (in words)” value in data set [1] was “high affinity”. Moreover, in data set [6], the “MMP binding / inhibition constants (in words)” value is reported as “MMP binding profiles similar to the RP805 precursor; also recorded: nanomolar range inhibition constants”. Besides, in data set [7], the “water solubility (in words)” value is recorded as “good aqueous solubility; also recorded: good water solubility”. For the same compound, in data set [2], the “affinity for rhMMP-2 (in words)” value was “high affinity”. Besides, the “affinity for rhMMP-12 (in words)” value in data set [3] is given as “high affinity”.

Consider `CC(C)C[C@H]1C(=O)N[C@H](C(=O)O)Cc2ccc(cc2)OCCC[C@@H]1C(=O)NO` [Compound 20, (6S,7R,10S)-6-(hydroxycarbamoyl)-7-isobutyl-8-oxo-2-oxa-9-aza-1(1,4)-benzenacycloundecaphane-10-carboxylic acid], for which the Ki in data set [1] came to 60.6 ± 11 nM; in data set [2], 101 ± 12.2 nM; in data set [3], 1.7 ± 0.2 nM.

On to `CNC(=O)[C@H](CCCNC(=N)N)NC(=O)[C@@H]1Cc2ccc(cc2)OCCC[C@H](C(=O)NO)[C@@H](CC(C)C)C(=O)N1` [Compound 19, (6S,7R,10S)—N10-((S)-5-guanidino-1-(methylamino)-1-oxopentan-2-yl)-N6-hydroxy-7-isobutyl-8-oxo-2-oxa-9-aza-1(1,4)-benzenacycloundecaphane-6,10-dicarboxamide], for which the Ki in data set [4] was 15.3 ± 5.4 nM; in data set [1] (setting [8]), 20.4 ± 2 nM; in data set [5], 17.1 ± 0.1 nM; in data set [2] (setting [9]) it was 5.8 ± 0.4 nM; in data set [3] (setting [10]), 1 ± 0.2 nM. Further, the “MMP binding / inhibition constants (in words)” value in data set [6] is on record as “MMP binding profiles similar to the RP805 precursor”.

By Ki is commonly meant a measure of affinity in units of concentration, obtained from inhibition or displacement.
